Experiments:
Erythrocyte = assay: Hemolytic activity against sheep blood erythrocytes at 10^-6 to 10^-4 M after 1 hr; format: ADME, cell-based, Ovis aries
[1] = target: T1, Angiotensin-converting enzyme (Rattus norvegicus, UniProt P47820); assay: Inhibition of Wistar rat plasma angiotensin 1-converting enzyme using H-hippuryl-His-Leu-OH as substrate after 20 mins by fluorescence assay
T1 sequence (P47820 whole entry): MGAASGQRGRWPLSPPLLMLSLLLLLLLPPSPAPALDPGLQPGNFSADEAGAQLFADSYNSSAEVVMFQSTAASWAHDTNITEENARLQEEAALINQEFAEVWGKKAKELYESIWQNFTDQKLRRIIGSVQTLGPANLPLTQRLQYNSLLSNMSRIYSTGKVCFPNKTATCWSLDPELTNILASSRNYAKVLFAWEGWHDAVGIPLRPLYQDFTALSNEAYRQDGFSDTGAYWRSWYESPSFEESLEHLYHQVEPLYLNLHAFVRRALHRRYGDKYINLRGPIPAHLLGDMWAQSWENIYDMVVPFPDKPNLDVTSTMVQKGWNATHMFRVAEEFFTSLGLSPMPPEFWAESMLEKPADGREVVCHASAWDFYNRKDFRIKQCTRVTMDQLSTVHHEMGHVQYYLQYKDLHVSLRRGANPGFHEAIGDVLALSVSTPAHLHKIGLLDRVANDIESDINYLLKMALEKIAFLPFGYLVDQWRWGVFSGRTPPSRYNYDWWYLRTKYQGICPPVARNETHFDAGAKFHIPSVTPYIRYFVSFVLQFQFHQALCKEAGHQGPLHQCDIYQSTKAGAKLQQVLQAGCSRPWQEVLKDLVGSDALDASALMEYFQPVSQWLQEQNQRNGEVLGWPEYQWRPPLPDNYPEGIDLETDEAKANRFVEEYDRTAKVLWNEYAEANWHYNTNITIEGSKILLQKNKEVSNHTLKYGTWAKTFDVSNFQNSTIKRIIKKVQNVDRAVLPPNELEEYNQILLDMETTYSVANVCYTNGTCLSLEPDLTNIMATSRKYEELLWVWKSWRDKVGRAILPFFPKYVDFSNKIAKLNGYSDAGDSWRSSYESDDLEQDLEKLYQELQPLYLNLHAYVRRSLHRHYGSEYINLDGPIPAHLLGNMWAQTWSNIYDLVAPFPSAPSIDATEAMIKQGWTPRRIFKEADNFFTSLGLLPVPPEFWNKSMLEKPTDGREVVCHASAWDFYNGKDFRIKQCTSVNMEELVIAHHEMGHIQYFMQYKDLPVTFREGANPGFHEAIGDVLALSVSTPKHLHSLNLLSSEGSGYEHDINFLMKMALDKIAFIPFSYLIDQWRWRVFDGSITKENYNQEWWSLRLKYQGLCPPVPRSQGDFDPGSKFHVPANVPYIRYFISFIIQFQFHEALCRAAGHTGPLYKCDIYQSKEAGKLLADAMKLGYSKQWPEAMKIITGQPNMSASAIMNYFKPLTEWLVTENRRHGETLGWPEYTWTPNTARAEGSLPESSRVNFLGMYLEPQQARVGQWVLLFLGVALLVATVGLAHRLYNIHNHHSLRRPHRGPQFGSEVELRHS

[2] = (§1) Cytotoxicity against BALB/c mouse peritoneal macrophages assessed as reduction in cell viability after 48 hrs by MTT assay; format: cell-based, Peritoneal macrophage; settings: BALB/c, peritoneal macrophages
Peritoneal macrophage [3] = assay: as §1; format: cell-based; settings: peritoneal macrophage, 48 h
Peritoneal macrophage [4] = assay: Cytotoxicity against BALB/c mouse peritoneal macrophages assessed as reduction in cell viability at 5 x 10^-4 M after 48 hrs by MTT assay relative to control; format: cell-based; settings: 500 µM
Peritoneal macrophage [5] = assay: Cytotoxicity against BALB/c mouse peritoneal macrophages assessed as reduction in cell viability at 10^-4 M after 48 hrs by MTT assay relative to control; format: cell-based; settings: 100 µM

Substance | Activity (Erythrocyte) | IC50 [1] [µM] | CC50 at 48 h [2] [µM] | Activity (Peritoneal macrophage [3]) | Activity (Peritoneal macrophage [4]) [%] | Activity (Peritoneal macrophage [5]) [%]
H-PPPKVSP-NH2 | Non-Toxic | 17.5 | 81.9 | Dose-dependent effect |  | 
H-WPPPKVSP-NH2 | Non-Toxic | 5.51 | 176 | Dose-dependent effect |  | 
H-WPPPKVS-NH2 | Non-Toxic | 162 | 33600 |  | 14.8 | 7.7
